Experimental data from US20210317090A1, “AMINO ACID DEPLETION AGENTS AS ANTIPROLIFERATIVE AGENTS” (University of Central Florida Research Foundation, Inc., priority 2018, published 2021).

Columns and labels:
[1] = tested on: CHO-MG cells; assay: Cytotoxicity IC50 (MTS) in polyamine-transport-deficient CHO-MG cells; assay type: cell-based, Chinese hamster; conditions: Cricetulus griseus, 48 h
Method: Regarding the biological studies performed in the following examples, it is noted that CHO K1, CHO-MG, and L3.6pl cells were grown in RPMI 1640 medium supplemented with 10% fetal bovine serum (FBS) and 1% penicillin/streptomycin. All cells were grown at 37° C. under a humidified 5% CO2 atmosphere. Aminoguanidine (1 mM used for CHO K1 and CHOMG cells and 250 μM for L3.6pl) was added to the growth medium to prevent oxidation of the compounds of the bovine serum amine oxidase enzyme that is present in calf serum. The cells used were in early to mid log phase and CHO and CHOMG were plated out at 1000 cells/well, whereas the L3.6pl cells were plated at 500 cells/well in a 96 well plate format.
This example illustrates aspects according to various embodiments pertaining to IC50 determinations and cell viability studies. Cell growth was assayed in sterile 96-well microtiter plates (Costar 3599, Corning, N.Y.). CHO K1 or CHOMG cells were plated at 1,000 cells/70 μL and L3.6pl cells at 500 cells/70 μL. […] After drug exposure (e.g., for 48 h for CHO K1 and CHO-MG and 48 h or 72 h for L3.6pl), cell growth was determined by measuring formazan formation from the 3-(4,5dimethylthiazol-2-yl)-5-(3-carboxymethoxyphenyl)-2-(4-sulfenyl)-2H tetrazolium, inner salt (MTS) using SynergyMx Biotek microplate reader for absorbance (490 nm) measurements.^27 All experiments were run in triplicate.

[2] = tested on: L3.6pl cells; assay: Ant-44 toxicity potentiation assay in L3.6pl cells; assay type: cell-based, human
Method: As performed previously with CHO K1 cells, L3.6pl cells were treated with compounds 9 (1666.177) and 10 (1666.255) and a fixed dose of Ant-44 to observe the potentiation effect. The 72 h IC50 dose of Ant-44 in L3.6pl cells was previously determined to be 4 μM. For this study, half that dose was used to replicate the large window used in the CHO experiments to look at reduction in cell viability. In a 96-well plate, L3.6pl cells were dosed with a fixed concentration of Ant-44 (2 μM) and increasing doses of compounds 9 (1666.177) and 10 (1666.255). Although both compounds were effective at reducing cell viability, higher doses were required compared to CHO K1 cells.
FIG. 6 is an example according to various embodiments, illustrating the ability of compounds 9 (1666.177) and 10 ([…]) to potentiate the effect of Ant-44 in L3.6pl cells. Cells were incubated for 72 h at 37° C. with the respective compound and Ant-44 (2 μM). A 250 μM AG solution was incubated with the cells for 24 h prior to addition of compounds. […] Both compounds are nontoxic at the second highest concentration tested (1 μM).

`CC(C)CCN1CCN(C(CNCc2ccccc2)CC2CCCCC2)CC1CC(C)C.Cl.Cl.Cl` (stereo not drawn) [Compound 10, Benzyl-{3-cyclohexyl-2-[3-isobutyl-4-(3-methyl-butyl)-piperazin-1-yl]-propyl}-amine trihydrochloride salt] was tested, and the IC50 [1] was 8.93 ± 0.75 µM, the “effectiveness at increasing the potency of Ant-44 relative to compound 9” value [2] was “approximately eleven times more effective” and the EC50 ([2]; Homo sapiens, Ant-44 2 μM, 72 h) was 0.29 ± 0.1 µM.
